Measured values published in patent publication US20220062233A1 (The Board of Trustees of the Leland Stanford Junior …, priority 2018, published 2022).

What was measured:
[1] = target: T1, interaction between Supt4h and NGN (subunit of Supt5h) (Homo sapiens, UniProt O00267+P63272); experiment: Split Gaussia luciferase complementation assay (M2-8 Luciferase); type: cell-based; conditions: M2-8 cells
T1 construct: expressed in transfected cells
Experimental: A. Split Gaussia Luciferase Complementation Assay […]
i: pNBR-X1-Supt4-Gluc1 and pNEBR-X1-NGN-Gluc2
The HA-Supt4h and Flag-NGN fragments are amplified by PCR using the plasmid pHA-Supt4h-YC and pFlag-NGN-YN and sub-cloned individually into pcDNA3.1-Gluc1 and pcDNA3.1-Gluc2 (described in “A highly sensitive protein-protein interaction assay based on Gaussia luciferase” published at Nat Methods. 2006 December; 3(12):977-9. Epub 2006 Nov. 12). Then HA-Supt4h-Gluc1 and Flag-NGN-Gluc2 are amplified by PCR and inserted to pNEBR-X1-Hygro (New England BioLabs), which contain RheoSwitch responsive element under the control of RheoSwitch ligand. […]
ii: pNEBR-X1-Supt4h-G1-NGN-G2
PCR products containing the sequence from 5XRE to polyA in pNEBR-X1-NGN-G2 are inserted to pNEBR-X1-Supt4h-G1 at Pcil site to generate Supt4h-G1 and NGN-G2 bidirectional under their own RheoSwitch responsive element and polyA in the same plasmid. […]
b. Stable Cloned Cell Line i: 293-R1 is a cloned cell line which is engineered to constitutively express RSL1 receptor/activator by transfecting HEK 293 cells with pNEBR-R1 plasmid (New England BioLabs) and selected with blasticidin. […]
ii: M2-8 is a cloned 293-R1 cell which can inducibly express pNEBR-X1-Supt4h-G1-NGN-G2 by addition of RSL1. Two point mutations ([…] and M110I) are introduced to the GL1 and GL2 for better stability according to “A high-throughput cell-based Gaussia luciferase reporter assay for identifying modulators of fibulin-3 secretion” published in J Biomol Screen. 2013 July; 18(6):647-58. The cell line is selected by hygromycin. […]
c. Cell Culture and Transfection Condition
All the HEK-293 cells and derivative clones are maintained in DMEM containing 10% FBS plus corresponding antibiotics (250 μg/ml hygromycin B, 10 μg/ml blasticidin or both) at 37° C., 5% CO2. All the transfections are done by using Lipofectamine 2000 (Invitrogen) according to the manufacturer's instructions. […]
d. Bioluminescence Assay from Cell Lysates
Plasmids harboring the Gluc1 and Gluc2 are co-transfected in a 1:1 ratio into 293-R1 cells plated on tissue culture treated 24-well plates using Lipofectamine 2000 according to the manufacturer's instructions. For stable M2-8 cells, the cells are directly plated into 96-well or 384-well white plates. Twenty-four hours later, RheoSwitch ligand with or without test compound is added to the cells for induction/drug treatment. After 24 hr, the cells are washed with PBS and the plate was stored at −20° C. overnight. Lysis buffer [30 mM Tris-HCl (pH 8.0) 5 mM NaCl, 0.1% Triton X-100] with 10 μg/ml native coelenterazine (Nanolight Technology) is then added to the cells at room temperature for one hour in the dark. After shaking for about 1 min, 40 μl of cell lysate are transferred to a white 96-well plate. For M2-8 in white micro plate, no transfer is needed. Signal intensities (integrated 100 ms) were read on Tecan Infinite M200 or M1000.
The split Gaussia luciferase complementation assay measures the interaction between Sup4h and NGN. NGN is the subunit of Supt5h that binds to Supt4h.

M2-8 cells = experiment: M2-8 Cell viability Assay; type: cell-based; conditions: at the concentration of 1000 nM

SMILES	IC50 [1]	M2-8 Cell viability (M2-8 cells)
c1ccc(CN[C@@H]2CCCc3c2[nH]c2ccccc32)cc1 [Compound 4, (R)—N-benzyl-2,3,4,9-tetrahydro-1H-carbazol-1-amine]	> 1000 nM	+ (cell viability is greater than 50% at the concentration of 1000 nM)
CCc1ccc2[nH]c3c(c2c1)CCC[C@H]3NCc1ccccc1 [Compound 6]	301 to 1000 nM	+ (cell viability is greater than 50% at the concentration of 1000 nM)
OCC#Cc1ccc2[nH]c3c(c2c1)CCC[C@H]3NCc1ccccc1 [Compound 7, (R)-3-(1-(benzylamino)-2,3,4,9-tetrahydro-1H-carbazol-6-yl)prop-2-yn-1-ol]	301 to 1000 nM	+ (cell viability is greater than 50% at the concentration of 1000 nM)
c1ccc(CN[C@@H]2CCCc3c2[nH]c2ccc(-c4ccccc4)cc32)cc1 [Compound 8, (R)—N-benzyl-6-phenyl-2,3,4,9-tetrahydro-1H-carbazol-1-amine]	> 1000 nM	+ (cell viability is greater than 50% at the concentration of 1000 nM)
Oc1cccc(-c2ccc3[nH]c4c(c3c2)CCC[C@H]4NCc2ccccc2)c1 [Compound 9, (R)-3-(1-(benzylamino)-2,3,4,9-tetrahydro-1H-carbazol-6-yl)phenol]	301 to 1000 nM	+ (cell viability is greater than 50% at the concentration of 1000 nM)
Oc1ccc(-c2ccc3[nH]c4c(c3c2)CCC[C@H]4NCc2ccccc2)cc1 [Compound 10, (R)-4-(1-(benzylamino)-2,3,4,9-tetrahydro-1H-carbazol-6-yl)phenol]	> 1000 nM	+ (cell viability is greater than 50% at the concentration of 1000 nM)
c1ccc(CN[C@@H]2CCCc3c2[nH]c2ccc(-c4cn[nH]c4)cc32)cc1 [Compound 11, (R)—N-benzyl-6-(1H-pyrazol-4-yl)-2,3,4,9-tetrahydro-1H-carbazol-1-amine]	> 1000 nM	+ (cell viability is greater than 50% at the concentration of 1000 nM)
OCCc1ccc2[nH]c3c(c2c1)CCC[C@H]3NCc1ccccc1 [Compound 12, (R)-2-(1-(benzylamino)-2,3,4,9-tetrahydro-1H-carbazol-6-yl)ethan-1-ol]	> 1000 nM	+ (cell viability is greater than 50% at the concentration of 1000 nM)
N[C@@H]1CCCc2c1[nH]c1ccc(Br)cc21 [Compound 15]	> 1000 nM	+ (cell viability is greater than 50% at the concentration of 1000 nM)
CC1(C)CCC(NCc2ccccc2)c2[nH]c3ccc(Br)cc3c21 (stereo not drawn) [Compound 16]	> 1000 nM	+ (cell viability is greater than 50% at the concentration of 1000 nM)
CC1(C)Cc2c([nH]c3ccc(Br)cc23)[C@H](NCc2ccccc2)C1 [Compound 17]	> 1000 nM	+ (cell viability is greater than 50% at the concentration of 1000 nM)
Cn1c2c(c3cc(Br)ccc31)CCCC2NCc1ccccc1 (stereo not drawn) [Compound 18]	> 1000 nM	+ (cell viability is greater than 50% at the concentration of 1000 nM)
Brc1ccc2[nH]c3c(c2c1)CCC[C@H]3NCc1ccc2ccccc2c1 [Compound 20, (R)-6-bromo-N-(naphthalen-2-ylmethyl)-2,3,4,9-tetrahydro-1H-carbazol-1-amine]	101 to 300 nM	+ (cell viability is greater than 50% at the concentration of 1000 nM)
Brc1ccc2[nH]c3c(c2c1)CCC[C@H]3NCc1ccc(N2CCCC2)cc1 [Compound 22, (R)-6-bromo-N-(4-(pyrrolidin-1-yl)benzyl)-2,3,4,9-tetrahydro-1H-carbazol-1-amine]	101 to 300 nM	+ (cell viability is greater than 50% at the concentration of 1000 nM)
COc1ccccc1CN[C@@H]1CCCc2c1[nH]c1ccc(Br)cc21 [Compound 23, (R)-6-bromo-N-(2-methoxybenzyl)-2,3,4,9-tetrahydro-1H-carbazol-1-amine]	301 to 1000 nM	+ (cell viability is greater than 50% at the concentration of 1000 nM)
CN(C)c1ccc(CN[C@@H]2CCCc3c2[nH]c2ccc(Br)cc32)cc1 [Compound 29, (R)-6-bromo-N-(4-(dimethylamino)benzyl)-2,3,4,9-tetrahydro-1H-carbazol-1-amine]	101 to 300 nM	+ (cell viability is greater than 50% at the concentration of 1000 nM)

Further lines, with some results ahead:

IC50 [1]	SMILES	M2-8 Cell viability (M2-8 cells)
301 to 1000 nM	CC(C)(O)c1ccc(C(CO)N[C@@H]2CCCc3c2[nH]c2ccc(Br)cc32)cc1 (mixture of isomers) [Compound 51, 2-(4-(1-(((R)-6-bromo-2,3,4,9-tetrahydro-1H-carbazol-1-yl)amino)-2-hydroxyethyl)phenyl) propan-2-ol]	+ (cell viability is greater than 50% at the concentration of 1000 nM)
≤ 100 nM	CC(C)(O)c1ccc(C(CF)N[C@@H]2CCCc3c2[nH]c2ccc(Br)cc32)cc1 (single isomer, unassigned) [Compound 54]	+ (cell viability is greater than 50% at the concentration of 1000 nM)
≤ 100 nM	CC(C)(O)c1ccc(C(CF)N[C@@H]2CCCc3c2[nH]c2ccc(Br)cc32)cc1 (single isomer, unassigned) [Compound 55]	+ (cell viability is greater than 50% at the concentration of 1000 nM)
101 to 300 nM	O=[N+]([O-])c1ccc(CN[C@@H]2CCCc3c2[nH]c2ccc(Br)cc32)cc1 [Compound 30, (R)-6-bromo-N-(4-nitrobenzyl)-2,3,4,9-tetrahydro-1H-carbazol-1-amine]	+ (cell viability is greater than 50% at the concentration of 1000 nM)
> 1000 nM	C(#CC1CC1)c1ccc2[nH]c3c(c2c1)CCC[C@H]3NCc1ccccc1 [Compound 34, (R)—N-benzyl-6-(cyclopropylethynyl)-2,3,4,9-tetrahydro-1H-carbazol-1-amine]	+ (cell viability is greater than 50% at the concentration of 1000 nM)
301 to 1000 nM	Cn1cncc1CN[C@@H]1CCCc2c1[nH]c1ccc(Br)cc21 [Compound 35, (R)-6-bromo-N-((1-methyl-1H-imidazol-5-yl)methyl)-2,3,4,9-tetrahydro-1H-carbazol-1-amine]	+ (cell viability is greater than 50% at the concentration of 1000 nM)
101 to 300 nM	Brc1ccc2[nH]c3c(c2c1)CCC[C@H]3NCc1ccc(I)cc1 [Compound 40, (R)-6-bromo-N-(4-iodobenzyl)-2,3,4,9-tetrahydro-1H-carbazol-1-amine]	+ (cell viability is greater than 50% at the concentration of 1000 nM)
301 to 1000 nM	CC(=O)c1ccc2[nH]c3c(c2c1)CCC[C@H]3NCc1ccccc1 [Compound 46, (R)-1-(1-(benzylamino)-2,3,4,9-tetrahydro-1H-carbazol-6-yl)ethan-1-one]	+ (cell viability is greater than 50% at the concentration of 1000 nM)
101 to 300 nM	C=C(C)c1ccc(CN[C@@H]2CCCc3c2[nH]c2ccc(Br)cc32)cc1 [Compound 47, (R)-6-bromo-N-(4-(prop-1-en-2-yl)benzyl)-2,3,4,9-tetrahydro-1H-carbazol-1-amine]	+ (cell viability is greater than 50% at the concentration of 1000 nM)
≤ 100 nM	CC(C)(OCCO)c1ccc(CN[C@@H]2CCCc3c2[nH]c2ccc(Br)cc32)cc1 [Compound 56, (R)-2-((2-(4-(((6-bromo-2,3,4,9-tetrahydro-1H-carbazol-1-yl)amino)methyl)phenyl)propan-2-yl)oxy)ethan-1-ol]	+ (cell viability is greater than 50% at the concentration of 1000 nM)
≤ 100 nM	OCc1cccc(CN[C@@H]2CCCc3c2[nH]c2ccc(Br)cc32)c1 [Compound 57, (R)-(3-(((6-bromo-2,3,4,9-tetrahydro-1H-carbazol-1-yl)amino)methyl)phenyl)methanol]	+ (cell viability is greater than 50% at the concentration of 1000 nM)
